Laboratory results reported in paper doi:10.1101/2025.11.18.689169v1 (bioRxiv, 2025).

Assays:
[1] = free ICG; cited from earlier work
[2] = test system: 4T1 mCherry mammary tumors; assay: Live IVIS imaging of tumor accumulation and tumor-to-background ratio; format: in vivo, Balb/c mice; conditions: 50 nmole intravenous, after background cleared over time, day 2
[3] = test system: 4T1 mouse breast cancer cells; assay: Cellular uptake, confocal microscopy; format: cell-based; conditions: 4T1 cells, 10 µM ICG labeled PAs, 2 hours, 37°C, confocal microscope
[4] = test system: 4T1 mCherry mammary tumors; assay: Biodistribution by ICG fluorescence of tissue homogenates; format: in vivo, Balb/c mice; conditions: 50 nmole intravenous, tissue homogenates 2 days after injection

Compound	blood circulation half-life [1] [min]	tumor-to-background ratio (TBR) [2]	cellular uptake / membrane retention [3]	tumor to liver ratio [4]
CC1(C)C(/C=C/C=C/C=C/C=C2\N(CCCCS(=O)(=O)O)c3ccc4ccccc4c3C2(C)C)=[N+](CCCCS(=O)(=O)[O-])c2ccc3ccccc3c21 [ICG, indocyanine green]	< 5			
GGGHGDCDD [C12]		6		
GGGHGDCDD [C16]		> 10	significant retention in the membrane	
GGGHGDCDD [C18]		> 10	significant retention in the membrane	~3.3
